Data set [1] concerns human cytomegalovirus (HCMV). As to the kind of experiment: Antiviral activity against human cytomegalovirus (HCMV) in MRC5 cells. The format is cell-based. The settings on record: for IC50 / IC90: Human betaherpesvirus 5, 168 h, MRC5 cells, MOI 0.01 IU per cell, 7 days post infection, mCherry positive cells; for Selectivity Index: SI50: MRC5 TOX 7 d CC50 relative to HCMV IC50. The procedure: To assess their antiviral activity, some compounds were tested against human cytomegalovirus (HCMV) in vitro. Human MRC5 cells were grown to confluency (˜1.0×10^4 cells/well) in 96-well plate format in Dulbecco's Modified Eagle Medium (DMEM) supplemented with 10% fetal bovine serum (FBS) 2 mM L-glutamine, 0.1 mM non-essential amino acids, 10 mM HEPES, and 100 U/ml each of penicillin and streptomycin and infected with an HCMV variant expressing mCherry tagged pUL99 (the product of late viral UL99 gene) at a multiplicity of 0.01 infectious unit (IU) per cell. Assays were performed in triplicate. One hour later, medium of the cells was replaced with fresh medium containing the indicated compounds at 25, 12.5, 6.25, 3.13, 1.56, 0.78, 0.39 μM or the carrier in which the compounds are dissolved (DMSO). Final concentration of DMSO was 0.5% in each treatment. Virus yield in the culture was determined at 7 days post infection by quantification of fluorescent (mCherry positive) cells in each well by fluorescent microscopy. Results were plotted using CDD Vault (CDD Vault was developed by Collaborative Drug Discovery, Inc., 1633 Bayshore Hwy, Suite 342, Burlingame, CA 94010) in order to calculate IC50s and IC90s.

The next data set can be described thus: MRC5 TOX 7 d. The format is cell-based. The settings on record: human.

In general, IC50 refers to the concentration needed to halve the response being measured. Read a high IC50 as weaker potency in that assay. The term IC90 denotes the concentration at which the effect reaches the 90% level. The low end stands for greater potency, the high end for weaker potency. The CC50 is the concentration that lowers cell viability or growth by half. A high value points to better tolerance by the cells. In the case of `NC(=O)Nc1ccc2c(c1)CN(c1ncc(Cc3ccc(N4CCS(=O)(=O)CC4)cc3)s1)CC2` [Example 002], in data set [1], half-maximal inhibition (IC50) required 2.59 µM, the 90% effect level (IC90) was put at 7.58 µM and the “Selectivity Index: SI50” value is recorded as greater than 19.3. In “MRC5 TOX 7 d”, this molecule registered a CC50 at 7 d greater than 50 µM.

As for `CNC(=O)N(C)c1ccc2c(c1)CN(c1nnc(Cc3ccc(-n4cccn4)cc3)s1)CC2` [Example 013], in data set [1], the 50% inhibitory concentration (IC50) amounted to 4.27 µM, the concentration for an effect of 90% (IC90) worked out at 9.25 µM and the “Selectivity Index: SI50” value is reported as greater than 11.7. In addition, the half-maximal cytotoxic concentration (CC50) at 7 d in “MRC5 TOX 7 d” was greater than 50 µM.

Turning to `CCOc1ccc(Cc2cnc(N3CCc4ccc(N(C)C(N)=O)cc4C3)s2)cc1` [Example 009], in data set [1], the midpoint of inhibition, the IC50, lay at 2.04 µM; it took 7.43 µM to reach the 90% level (IC90); the “Selectivity Index: SI50” value is given as greater than 24.4. The same molecule returned a 50% cytotoxic concentration (CC50) at 7 d in the data set “MRC5 TOX 7 d” greater than 50 µM.

Turning to `CN(C(N)=O)c1ccc2c(c1)CN(c1ncc(Cc3ccc(OCC4CC4)cc3)s1)CC2` [Example 010], in data set [1], the 50% inhibitory concentration (IC50) is 2.44 µM, the 90% effect level (IC90) was put at 7.97 µM and the “Selectivity Index: SI50” value is reported as 6.9. Moreover, in “MRC5 TOX 7 d”, it took 16.9 µM to reach half-maximal cytotoxicity (CC50 at 7 d).

For `NC(=O)Nc1ccc2c(c1)CN(c1ncc(Cc3ccc(N4CCOCC4)cc3)s1)CC2` [Example 005], in data set [1], the concentration for half-maximal inhibition (IC50) was 1.43 µM, the IC90 is 2.92 µM and the “Selectivity Index: SI50” value is recorded as greater than 7.3. In addition, in “MRC5 TOX 7 d”, the CC50 at 7 d is greater than 10.4 µM.

With `NC(=O)Nc1cnc2c(c1)CN(c1ncc(Cc3ccc(N4CCOCC4)cc3)s1)CC2` [Example 018], in data set [1], the half-maximal inhibitory concentration (IC50) was 16.1 µM, the 90% effect level (IC90) was put at 17.7 µM and the “Selectivity Index: SI50” value is recorded as greater than 3.1. The same molecule gave a CC50 at 7 d in “MRC5 TOX 7 d” greater than 50 µM.

In the case of `CN(C(N)=O)c1ccc2c(c1)CN(c1ncc(Cc3ccc(N4CCOCC4)cc3)s1)CC2` [Example 012], in data set [1], half-maximal inhibition (IC50) required 2.13 µM, the IC90 was greater than 4.24 µM and the “Selectivity Index: SI50” value is on record as greater than 23.5. In the data set “MRC5 TOX 7 d”, the cytotoxic concentration (CC50) at 7 d was greater than 50 µM.

For `CCOc1ccc(Cc2cnc(N3CCc4ncc(NC(N)=O)cc4C3)s2)cc1` [Example 017], in data set [1], it took 6.46 µM to reach half-maximal inhibition (IC50), it took 47.5 µM to reach the 90% level (IC90) and the “Selectivity Index: SI50” value is 7.3. Besides, the midpoint of cytotoxicity in “MRC5 TOX 7 d”, the CC50 at 7 d, lay at 47.3 µM.

`CNC(=O)N(C)c1ccc2c(c1)CN(c1noc(Cc3ccc(-n4cccn4)cc3)n1)CC2` [Example 015]: in data set [1], half-maximal inhibition (IC50) was put at 2.51 µM, the IC90 amounted to 5.59 µM and the “Selectivity Index: SI50” value is on record as 17.7. Also, it took 44.4 µM to reach half-maximal cytotoxicity in the data set “MRC5 TOX 7 d” (CC50 at 7 d).

For the molecule `NC(=O)Nc1cnc2c(c1)CN(c1ncc(Cc3ccc(-n4cccn4)cc3)s1)CC2` [Example 016], in data set [1], the IC50 was determined as 5.25 µM, the IC90 was greater than 6.77 µM and the “Selectivity Index: SI50” value is recorded as greater than 3.0. This molecule displayed a half-maximal cytotoxic concentration (CC50) at 7 d in the data set “MRC5 TOX 7 d” greater than 15.8 µM.

For `CN1CC(Oc2ccc(Cc3cnc(N4CCc5ccc(NC(N)=O)cc5C4)s3)cc2)C1` [Example 006], in data set [1], the concentration for half-maximal inhibition (IC50) was 3.37 µM, the concentration for an effect of 90% (IC90) was greater than 50 µM and the “Selectivity Index: SI50” value is reported as 12.9. Moreover, in “MRC5 TOX 7 d”, half-maximal cytotoxicity (CC50 at 7 d) was put at 43.4 µM.
